The subject of the assay is HeLa cells, increased 2N DNA content (cell cycle). The assay is described as follows: rise of 2N DNA cells, HeLa – IC50, dose response (AID 1117349).

The source made the active and inactive calls. No rule for the calls is given here.

As usually defined, the IC50 is the midpoint of a concentration-inhibition curve. Take `CCCCCCCCCCCC(=O)[O][Sn]([CH2]CCC)([CH2]CCC)[O]C(=O)CCCCCCCCCCC`: the IC50 was > 10 µM (inactive).

Consider `Cc1ccc([N+](=O)[O-])[c]2c1[O][Hg]2`, for which the IC50 was > 10 µM (inactive).

For `CCCCCCCCCCCCCC[N+](C)(C)C`, the IC50 was > 10 µM (inactive).

For the molecule `C[n+]1c2cc(N)ccc2cc2ccc(N)cc21` (tested in a mixture with another compound), the IC50 is 3.39 µM.

Source of the values: PubChem BioAssay AID1117349.
